# Earlier results in patent US8466103B2, “Exendin polypeptide linked to biotin, method for the preparation thereof and pharmaceutical composition comprising the same” (B&L Delipharm, Corp., priority 2008, dated 2013).
# Target: Na-dependent multivitamin transport system
# Settings: small intestines; read-out: Affinity constant of the transport system for biotin; cited from earlier work
smiles,measurement,value
O=C(O)CCCC[C@@H]1SC[C@@H]2NC(=O)N[C@@H]21 [biotin],Kd,~2.6 nM
